# Source: paper PMC10034064, “Expanding the apelin receptor pharmacological toolbox using novel fluorescent ligands” (Frontiers in Endocrinology, 2023)
# Bridge positions count the residues as written; N and C are the ends. Peptide text beside a SMILES is read from it.
# Tests used:
# apelin receptor [1] = biological target: T1, apelin receptor (Homo sapiens, UniProt P35414); assay: Fluorescent ligand binding in human kidney tissue sections
# T1 sequence (P35414 1-380): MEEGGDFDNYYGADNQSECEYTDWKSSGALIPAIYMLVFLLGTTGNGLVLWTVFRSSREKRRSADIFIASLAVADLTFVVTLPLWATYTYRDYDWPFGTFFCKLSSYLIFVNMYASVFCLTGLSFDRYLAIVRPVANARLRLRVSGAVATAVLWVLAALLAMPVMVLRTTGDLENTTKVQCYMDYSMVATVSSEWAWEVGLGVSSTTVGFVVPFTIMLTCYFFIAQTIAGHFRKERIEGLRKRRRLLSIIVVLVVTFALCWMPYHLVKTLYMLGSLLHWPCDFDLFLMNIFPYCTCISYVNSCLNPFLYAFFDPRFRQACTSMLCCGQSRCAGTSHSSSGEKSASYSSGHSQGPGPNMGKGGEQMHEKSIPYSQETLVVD
# Description: Frozen human kidney tissue sections (10 µm), were cut using a cryostat onto microscopy slides. […] Slides were washed with HBSS before fixation with 4% formaldehyde for 3 mins.
# Automated fluorescent images (16 bit, 0.325 x 0.325 μm scaling per pixel) of fixed and mounted human tissue stained with fluorescent markers were acquired using an Axio Scan Z1 slide scanner (Zeiss) slide scanner with a Plan-Apochromat 20x/NA0.8 M27 objective lens connected to a Hamamatsu Orca Flash camera. An initial brightfield scan was performed to visualise tissue on slides, and a spline contour tool was used to outline the tissue to minimise the total region imaged. A profile with three fluorescent channels was used; a first channel (blue), with an LED-Module 385 nm light source set at 10% intensity and 10 ms exposure time at a depth of focus of 1.45 μm for Hoechst 33342 nuclear marker (405 nm wavelength); a second channel (green), with an LED-Module 475 nm light source set at 80% intensity and 30 ms exposure time at a depth of focus of 1.64 μm for 488 nm wavelengths; and a third channel (yellow/orange), an LED-Module 567 nm light source set at 80% intensity and 30 ms exposure time at a depth of focus of 1.88 μm for 555 nm wavelengths. Focal depths were determined by the slide scanner’s in-built Z stacking autofocusing. All acquired images were saved and visualised using ZEN software (Zeiss) and/or Orbit Image Analysis (ORBIT) software. Regions of interest were identified using the spline contour, and mean fluorescent signal (in grayscales) was provided by ZEN software (Zeiss).
# apelin receptor [2] = biological target: T1, apelin receptor; assay: Radioligand competition binding against [125I]-apelin-13 in human left ventricle homogenate; design: Surgical samples of human left ventricle (HLV) tissue were obtained with informed consent; from tissue; host or cells: human left ventricle homogenate; conditions: apelin ligands vs [Pyr1]apelin-13; ELA ligands vs ELA-14
# Description: Surgical samples of human left ventricle (HLV) tissue were obtained with informed consent and ethical approval (05/Q104/142). Tissues were snap frozen in liquid nitrogen before storage at -80°C. On the day of preparation, tissue was chopped finely with a razor blade on ice, before subsequent homogenisation using a Polytron Homogenizer (Thomas Scientific), in homogenisation buffer (50 mM Tris-HCl, 5 mM MgCl2, 5 mM EDTA, 1 mM EGTA, 1:500 protease inhibitor cocktail containing aprotinin and amastatin, balanced at pH 7.4) at 4°C. The resulting homogenate was subsequently spun at 1000 xg for 2 mins at 4°C. Supernatant was transferred to another set of tubes (pellet discarded) for a high speed spin at 40,000 xg, for 30 mins at 4°C. Supernatant was then discarded, and the remaining pellet resuspended in 2.5 mL/g of homogenisation buffer, before a second high speed spin at 40,000 xg, for 30 mins at 4°C. The supernatant was discarded, and the remaining pellet was resuspended in HEPES buffer (50 mM HEPES, balanced at pH 7.4 at room temperature) and stored in the freezer at -70°C until use in assays.
# The radiolabel has a specific activity of 2200 Ci/mmol. […]
# Total binding was determined in the absence of competing fluorescent ligand. […] Radioactivity in pellets was counted using a Cobra II model 5003 gamma counter (Packard). […]
# [3] = biological target: T2, human apelin receptor (AGTRL1) (Homo sapiens, UniProt P35414); assay: PathHunter GPCR internalisation assay in U2OS cells; type: cell-based; conditions: U2OS cells overexpressing human apelin receptor, 90 mins, n = 3
# T2 construct: host or cells: U2OS
# T2 sequence (P35414 1-380): T1 sequence (P35414 1-380)
# Description: Internalisation of apelin receptor following ligand treatment was determined using an in vitro PathHunter GPCR Internalisation Assay (Eurofins). The manufacturer’s protocol was modified in accordance with previous in-house optimisation. All reagents were provided in the assay kit. U2OS cells overexpressing human apelin receptor (AGTRL1) were seeded in cell plating reagent into 96-well plates and incubated for 48 h at 37°C, 5% CO2, humidified. To test novel fluorescent compounds for agonist activity, wells were treated with test compounds over a concentration range in Cell Plating Reagent to generate an 8-point concentration-response curve. Cells were then incubated for 90 mins at 37°C, 5% CO2, humidified before treatment with Working Detection Solution (Cell Assay Buffer, Substrate Reagent 1, Substrate Reagent 2), and incubation for 2 h at room temperature, protected from light. Plates were read in a chemiluminescence detecting LumiLITE Microplate Reader (DiscoveRx, Fremont, CA, USA). Responses, measured in Relative Light Units (RLU), were fitted to four parameter logistic concentration response curves in GraphPad Prism version 6.07 for Windows (GraphPad Software) to determine compound concentrations inducing half maximal response (EC50), and pD2 values (-log10 EC50) were calculated.
# apelin receptor [4] = biological target: T1, apelin receptor; assay: Dynamic mass redistribution assay in CHO-APLNR cells; type: cell-based; design: host or cells: CHO-K1; conditions: maximal change in peak wavelength value from baseline, n = 3
# Description: Apelin receptor downstream signalling was determined using an in vitro BIND technology dynamic mass redistribution assay (SRU Biosystems). CHO-APLNR cells were seeded in 96-well biosensor plates (SRU Biosystems) at a density of 50K/well, maintained in 95 µL feeding media, and incubated for 24 h at 37°C, 5% CO2, humidified. The following day, the plate was loaded onto the SRU Biosystems BIND PROFILER TURBO reader, and left to acclimatise to room temperature for 20 mins before a baseline read was taken over 10 mins. To test novel fluorescent compounds for agonist activity, cells were treated with test compounds (5 µL additions in PBS) over a concentration range to generate an 8-point concentration-response curve. The biosensor plate was read for a subsequent 60 mins. Responses, measured in maximal change in peak wavelength value from baseline (ΔPWV), were fitted to four parameter logistic concentration response curves in GraphPad Prism version 6.07 for Windows (GraphPad Software) to determine compound concentrations inducing half maximal response (EC50), and pD2 values (-log10 EC50) were calculated.
# apelin receptor [5] = assay: Fluorescent ligand binding (saturation, specificity, competition) in CHO-APLNR cells by high content imaging; conditions: 300 nM apelin647, wild-type CHO-K1 cells without apelin receptor
# Description: (§1) Cells were seeded in CellCarrier-96 Ultra Plates at a density of ~10 k/well. […] For time-course experiments, CHO-APLNR were treated with 300 nM of the fluorescent ligand for 0 – 90 mins, in the dark at room temperature. For saturation binding experiments, CHO-APLNR were treated with a concentration range of 1 – 300 nM of the fluorescent ligand for 90 mins, in the dark at room temperature. […] Untransfected CHO-K1 cells were also used as controls. […] At the end-points, CHO-APLNR were washed with HBSS before fixation with 4% formaldehyde. CHO-APLNR were washed with HBSS before treatment with Hoechst 33342 nuclear marker prepared at 10 µg/mL in HBSS for 15 mins. […] The software was also used to calculate binding affinities (Ki values) of competing ligands using the Cheng-Prusoff equation.
# (§2) For imaging studies, cells in CellCarrier-96 Ultra Plates (PerkinElmer) were imaged using a 40x/NA1.1 water immersion objective. The device was set to measure an image field within each well, where the field is made up of a 4 x 4 or 5 x 5 grid of imaging regions (where each region is 250 x 250 μm in area). After using Z stacking to find an appropriate focal plane, cells were visualised and imaged at a focal depth of 0.5 μm above the bottom of the plate in all experiments. […]
# (§3) Following image acquisition, several cell parameters were quantified using in-built Harmony High Content Imaging and Analysis Software (PerkinElmer). […] Intracellular fluorescence was calculated as fluorescence identified in the membrane collar subtracted from whole cell fluorescence. Mean fluorescence intensities were calculated for membrane and whole cell compartments in observed cells in the selected population, given as fluorescence units provided by Harmony software.
# apelin receptor [6] = biological target: T1, apelin receptor; assay: as above; design: host or cells: CHO-K1
# Description: as §1, §2, §3
# [7] = 1 µM fluorescent ligand alone, human kidney sections, 30 mins
# [8] = 1 µM fluorescent ligand plus 10 µM [Pyr1]apelin-13 (apelin488) or ELA-14 (ELA488)
compound,measurement,setting,value
CSCC[C@H](NC(=O)[C@H](CS)NC(=O)[C@H](CCCNC(=N)N)NC(=O)[C@H](CCCNC(=N)N)NC(=O)[C@H](CCC(N)=O)NC(=O)CCOCCOCCOCCOCCNC(=O)c1ccc(-c2c3ccc(=N)c(S(=O)(=O)O)c-3oc3c(S(=O)(=O)O)c(N)ccc23)c(C(=O)O)c1)C(=O)N1CCC[C@H]1C(=O)N[C@@H](CC(C)C)C(=O)N[C@@H](Cc1c[nH]cn1)C(=O)N[C@@H](CO)C(=O)N[C@@H](CCCNC(=N)N)C(=O)N[C@H](C(=O)N1CCC[C@H]1C(=O)N[C@@H](Cc1ccccc1)C(=O)N1CCC[C@H]1C(=O)O)C(C)C [ELA488],mean fluorescence in renal blood vessels,apelin receptor [1]; [7],18869 ± 5968 grayscales
same,mean fluorescence in tubular structures of the renal cortex,apelin receptor [1]; [7],7392 ± 1338 grayscales
same,mean fluorescence in renal blood vessels in the presence of unlabelled parent ligand,apelin receptor [1]; [8],7946 ± 3656 grayscales
same,mean fluorescence in tubular structures of the renal cortex in the presence of unlabelled parent ligand,apelin receptor [1]; [8],2458 ± 801 grayscales
same,binding affinity fold lower than the unlabelled endogenous parent ligand,apelin receptor [2],~ 23 fold
same,Emax,[3],169693 ± 9461 RLU
same,Emax,apelin receptor [4],240.32 ± 27.91 ΔPWV
CCCC[C@H](NC(=O)[C@@H]1CCCN1C(=O)CNC(=O)[C@H](CCCCN)NC(=O)[C@H](Cc1c[nH]cn1)NC(=O)[C@H](CO)NC(=O)[C@H](CC(C)C)NC(=O)[C@H](CCCNC(=N)N)NC(=O)[C@@H]1CCCN1C(=O)[C@H](CCCNC(=N)N)NC(=O)[C@H](CCC(N)=O)NC(=O)CCOCCOCCOCCOCCNC(=O)CCCCCC1(C)C(=CC=CC=CC2=[N+](CCCS(=O)(=O)[O-])c3ccc(S(=O)(=O)O)cc3C2(C)C)N(CCCS(=O)(=O)O)c2ccc(S(=O)(=O)O)cc21)C(=O)N1CCC[C@H]1C(=O)N[C@@H](Cc1ccc(OCc2ccccc2)cc1)C(=O)O (stereo partly shown) [apelin647],binding in wild-type CHO-K1 cells,apelin receptor [5],0.70 ± 0.45 mean fluorescence
CSCC[C@H](NC(=O)[C@H](CS)NC(=O)[C@H](CCCNC(=N)N)NC(=O)[C@H](CCCNC(=N)N)NC(=O)[C@H](CCC(N)=O)NC(=O)CCOCCOCCOCCOCCNC(=O)CCCCCC1(C)C(=CC=CC=CC2=[N+](CCCS(=O)(=O)[O-])c3ccc(S(=O)(=O)O)cc3C2(C)C)N(CCCS(=O)(=O)O)c2ccc(S(=O)(=O)O)cc21)C(=O)N1CCC[C@H]1C(=O)N[C@@H](CC(C)C)C(=O)N[C@@H](Cc1c[nH]cn1)C(=O)N[C@@H](CO)C(=O)N[C@@H](CCCNC(=N)N)C(=O)N[C@H](C(=O)N1CCC[C@H]1C(=O)N[C@@H](Cc1ccccc1)C(=O)N1CCC[C@H]1C(=O)O)C(C)C (stereo partly shown) [ELA647],binding affinity fold lower than the unlabelled endogenous parent ligand,apelin receptor [2],~ 58 fold
same,Emax,[3],128992 ± 6218 RLU
same,Emax,apelin receptor [4],185.23 ± 36.82 ΔPWV
CCC(CC)n1c(Cc2cccs2)nc2cc(C(=O)N[C@H](CC(=O)O)CC(C)C)ccc21 [CMF-019],pKi,apelin receptor [6],5.91
"CC(C)C[C@@H]1NC(=O)[C@H](CCCNC(=N)N)NC(=O)[C@@H]2CCCN2C(=O)[C@H](CCCNC(=N)N)NC(=O)[C@@H](NC(=O)[C@H](Cc2c[nH]cn2)NC(=O)[C@H](CCCCN)NC(=O)[C@@H]2CSSC[C@H](N)C(=O)N[C@@H](CCCNC(=N)N)C(=O)N3CCC[C@H]3C(=O)N[C@@H](CCCNC(=N)N)C(=O)N[C@@H](CC(C)C)C(=O)N2)CSSC[C@@H](C(=O)O)NC1=O [MM54] (H-CRPRLCKHCRPRLC-OH; disulfide 1-6, 9-14)",Ki,apelin receptor [6],5.75 µM
